# Assay results reported in patent US12404239B2, “Modulators of BCL6 as ligand directed degraders” (Celgene Corporation, priority 2022, dated 2025).
# Target: T1, BCL6 (Homo sapiens, UniProt P41182)
# T1 construct: HiBiT-tag knocked into endogenous BCL6 locus using CRISPR; endogenous in cells; host or cells: DHL-4_BCL6_HiBiT cells (CRISPR knock-in)
# Experiment: BCL6_HiBiT degradation assay (2 h)
# Assay type: cell-based
# Details: DHL-4_BCL6_HiBiT cells, read-out: YCon (% remaining maximal effect)
# Method in brief: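 DHL-4 cells carrying CRISPR HiBiT knock-in at endogenous BCL6, treated 2 h at 37 °C with 10-point 3-fold dilutions from 1-10 μM. BCL6 level read by Nano-Glo HiBiT lytic luminescence normalized to DMSO; four-parameter fit gives degradation EC50 and Yconstant (% remaining at maximal effect).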
row,Compound,Percent BCL6 remaining at maximal degradation (Ycon) [%]
1,"CN1C(=O)Cc2cc(Nc3nc(N4CC[C@H](Nc5ccc6c(C7CCC(=O)NC7=O)nn(C)c6c5)[C@H](CO)C4)ncc3Cl)ccc21 (stereo partly drawn) [Example 58, 3-(6-(((3R,4S)-1-(5-chloro-4-((1-methyl-2-oxoindolin-5-yl)amino)pyrimidin-2-yl)-3-(hydroxymethyl)piperidin-4-yl)amino)-1-methyl-1H-indazol-3-yl)piperidine-2,6-dione]",20 to 60
2,"CN1C(=O)Cc2cc(Nc3nc(N(C)C4CCN(c5cnc6c(C7CCC(=O)NC7=O)nn(C)c6c5)CC4)ncc3Cl)ccc21 (centres unmarked) [Example 59, 3-(6-(4-((5-chloro-4-((1-methyl-2-oxoindolin-5-yl)amino)pyrimidin-2-yl)(methyl)amino)piperidin-1-yl)-1-methyl-1H-pyrazolo[4,3-b]pyridin-3-yl)piperidine-2,6-dione]",> 60
3,"CN1C(=O)Cc2cc(Nc3nc(N(C)C4CCN(c5cc6c(cn5)c(C5CCC(=O)NC5=O)nn6C)CC4)ncc3Cl)ccc21 (centres unmarked) [Example 60, 3-(6-(4-((5-chloro-4-((1-methyl-2-oxoindolin-5-yl)amino)pyrimidin-2-yl)(methyl)amino)piperidin-1-yl)-1-methyl-1H-pyrazolo[4,3-c]pyridin-3-yl)piperidine-2,6-dione]",> 60
4,"C[C@@H]1CN(c2ncc(Cl)c(Nc3ccc4c(c3)N(C)C(=O)C4)n2)CC[C@H]1Nc1ccc2c(C3CCC(=O)NC3=O)nn(C)c2c1 (stereo partly drawn) [Example 61, 3-(6-(((3R,4R)-1-(5-chloro-4-((1-methyl-2-oxoindolin-6-yl)amino)pyrimidin-2-yl)-3-methylpiperidin-4-yl)amino)-1-methyl-1H-indazol-3-yl)piperidine-2,6-dione]",< 20
5,"C[C@@H]1CN(c2ncc(Cl)c(Nc3ccc4c(c3)CC(=O)N4C)n2)CC[C@H]1Nc1ccc2c(C3CCC(=O)NC3=O)nn(C)c2n1 (stereo partly drawn) [Example 62, 3-(6-(((3R,4R)-1-(5-chloro-4-((1-methyl-2-oxoindolin-5-yl)amino)pyrimidin-2-yl)-3-methylpiperidin-4-yl)amino)-1-methyl-1H-pyrazolo[3,4-b]pyridin-3-yl)piperidine-2,6-dione]",< 20
6,"Cn1nc(C2CCC(=O)NC2=O)c2ccc(NC3CCN(c4ncc(Cl)c(Nc5ccc6c(c5)CC(=O)N6)n4)CC3)cc21 (centres unmarked) [Example 63, 3-(6-((1-(5-chloro-4-((2-oxoindolin-5-yl)amino)pyrimidin-2-yl)piperidin-4-yl)amino)-1-methyl-1H-indazol-3-yl)piperidine-2,6-dione]",> 60
7,"CN1C(=O)Cc2cc(Nc3nc(N4CCC(Nc5ccc6c(C7CCC(=O)NC7=O)nn(C)c6c5)C(F)(F)C4)ncc3Cl)ccc21 (centres unmarked) [Example 64, 3-(6-((1-(5-Chloro-4-((1-methyl-2-oxoindolin-5-yl)amino)pyrimidin-2-yl)-3,3-difluoropiperidin-4-yl)amino)-1-methyl-1H-indazol-3-yl)piperidine-2,6-dione]",> 60
8,"CN1C(=O)Cc2cc(Nc3nc(N4CCC(Nc5ccc6c(N7CCC(=O)NC7=O)nn(C)c6c5)C(F)(F)C4)ncc3Cl)ccc21 (centres unmarked) [Example 65, 1-(6-((1-(5-chloro-4-((1-methyl-2-oxoindolin-5-yl)amino)pyrimidin-2-yl)-3,3-difluoropiperidin-4-yl)amino)-1-methyl-1H-indazol-3-yl)dihydropyrimidine-2,4(1H,3H)-dione]",> 60
9,"CN1C(=O)Cc2cc(Nc3nc(N4CC[C@@H](Nc5ccc6c(C7CCC(=O)NC7=O)nn(C)c6c5)C(F)(F)C4)ncc3Cl)ccc21 (stereo partly drawn) [Example 66, 3-(6-(((R)-1-(5-chloro-4-((1-methyl-2-oxoindolin-5-yl)amino)pyrimidin-2-yl)-3,3-difluoropiperidin-4-yl)amino)-1-methyl-1H-indazol-3-yl)piperidine-2,6-dione]",> 60
10,"CN1C(=O)Cc2cc(Nc3nc(N4CC[C@H](Nc5ccc6c(C7CCC(=O)NC7=O)nn(C)c6c5)C(F)(F)C4)ncc3Cl)ccc21 (stereo partly drawn) [Example 67, 3-(6-(((S)-1-(5-chloro-4-((1-methyl-2-oxoindolin-5-yl)amino)pyrimidin-2-yl)-3,3-difluoropiperidin-4-yl)amino)-1-methyl-1H-indazol-3-yl)piperidine-2,6-dione]",20 to 60
11,"CN1C(=O)Cc2cc(Nc3nc(NC4CCN(c5ccc6c(C7CCC(=O)NC7=O)nn(C)c6c5)CC4(F)F)ncc3Cl)ccc21 (centres unmarked) [Example 68, 3-(6-(4-((5-chloro-4-((1-methyl-2-oxoindolin-5-yl)amino)pyrimidin-2-yl)amino)-3,3-difluoropiperidin-1-yl)-1-methyl-1H-indazol-3-yl)piperidine-2,6-dione]",20 to 60

# Results, then the compound that gave them:
row,Percent BCL6 remaining at maximal degradation (Ycon) [%],Compound
1,< 20,"CCN1C(=O)Cc2cc(Nc3nc(N4CC[C@@H](Nc5ccc6c(C7CCC(=O)NC7=O)nn(C)c6c5)[C@H](C)C4)ncc3Cl)ccc21 (stereo partly drawn) [Example 69, 3-(6-(((3R,4R)-1-(5-chloro-4-((1-ethyl-2-oxoindolin-5-yl)amino)pyrimidin-2-yl)-3-methylpiperidin-4-yl)amino)-1-methyl-1H-indazol-3-yl)piperidine-2,6-dione]"
2,< 20,"C[C@@H]1CN(c2ncc(Cl)c(Nc3ccc4c(c3)CC(=O)N4C)n2)CC[C@H]1Nc1ccc2c(C3CCC(=O)NC3=O)nn(C)c2c1 (stereo partly drawn) [Example 70, 3-(6-(((3R,4R)-1-(5-chloro-4-((1-methyl-2-oxoindolin-5-yl)amino)pyrimidin-2-yl)-3-methylpiperidin-4-yl)amino)-1-methyl-1H-indazol-3-yl)piperidine-2,6-dione]"
3,< 20,"C[C@@H]1CN(c2ncc(Cl)c(Nc3ccc4c(c3)CC(=O)N4C)n2)CC[C@H]1N(C)c1ccc2c(C3CCC(=O)NC3=O)nn(C)c2c1 (stereo partly drawn) [Example 73, 3-(6-(((3R,4R)-1-(5-chloro-4-((1-methyl-2-oxoindolin-5-yl)amino)pyrimidin-2-yl)-3-methylpiperidin-4-yl)(methyl)amino)-1-methyl-1H-indazol-3-yl)piperidine-2,6-dione]"
4,20 to 60,"C[C@@H]1CN(c2ncc(Cl)c(Nc3cnc4c(c3)CC(=O)N4C)n2)CC[C@H]1Nc1ccc2c(C3CCC(=O)NC3=O)nn(C)c2c1 (stereo partly drawn) [Example 74, 3-(6-(((3R,4R)-1-(5-chloro-4-((1-methyl-2-oxo-2,3-dihydro-1H-pyrrolo[2,3-b]pyridin-5-yl)amino)pyrimidin-2-yl)-3-methylpiperidin-4-yl)amino)-1-methyl-1H-indazol-3-yl)piperidine-2,6-dione]"
5,< 20,"COCCN1C(=O)Cc2cc(Nc3nc(N4CC[C@@H](Nc5ccc6c(C7CCC(=O)NC7=O)nn(C)c6c5)[C@H](C)C4)ncc3Cl)ccc21 (stereo partly drawn) [Example 75, 3-(6-(((3R,4R)-1-(5-chloro-4-((1-(2-methoxyethyl)-2-oxoindolin-5-yl)amino)pyrimidin-2-yl)-3-methylpiperidin-4-yl)amino)-1-methyl-1H-indazol-3-yl)piperidine-2,6-dione]"
6,20 to 60,"C[C@@H]1CN(c2ncc(Cl)c(Nc3ccc4c(c3)CC(=O)N4C)n2)C[C@@H](C)N1c1ccc2c(C3CCC(=O)NC3=O)nn(C)c2c1 (stereo partly drawn) [Example 78, 3-(6-((2R,6R)-4-(5-chloro-4-((1-methyl-2-oxoindolin-5-yl)amino)pyrimidin-2-yl)-2,6-dimethylpiperazin-1-yl)-1-methyl-1H-indazol-3-yl)piperidine-2,6-dione]"
